Measured values published in patent US20080287445A1, “Prokineticin 2 receptor antagonists” (priority 2005, published 2008).
Where “and” joins values, the source holds several entries; their conditions need not be identical. Equal entries are not always repeated.

Assays:
[1] = molecular target: T1, GPR73 (prokineticin 1 receptor) (Homo sapiens, UniProt Q8TCW9); experiment: PK1 functional assay: Ca2+ mobilization screening for PK1 antagonists on the FLIPR; format: cell-based; settings: HEK 293 GPR73 cells, multiple values = multiple testing; for Ca^2+ Mobilization % Inh @ 10 μM: 10 μM compound; for inhibition at 10 µM: HEK293, 10 μM compound, read-out: Ca^2+ Mobilization % Inh @ 10 μM; for IC50: PK1 ligand preparation at its EC50, read-out: Ca^2+ Mobilization IC50
T1 construct: expressed in transfected cells; host or cells: HEK 293
How it was run: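 HEK293 cells expressing human GPR73 were loaded with Calcium Plus dye, then on FLIPR given compound for 4 min 15 s before PK1 ligand at its predetermined EC50. Baseline-subtracted fluorescence over 1 min 45 s gave percent inhibition versus maximal signal; IC50 fitted.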

[2] = tested on: Cholera toxin evoked increase in baseline Isc; design: species or system rat
[3] = tested on: ileum mucosal tissues from PK1 receptor knock-out mice; experiment: PK1-evoked Isc in ileum mucosal tissues from PK1 receptor knock-out mice; settings: exogenous PK1 peptide

T1 sequence (Q8TCW9 whole entry, species assumed): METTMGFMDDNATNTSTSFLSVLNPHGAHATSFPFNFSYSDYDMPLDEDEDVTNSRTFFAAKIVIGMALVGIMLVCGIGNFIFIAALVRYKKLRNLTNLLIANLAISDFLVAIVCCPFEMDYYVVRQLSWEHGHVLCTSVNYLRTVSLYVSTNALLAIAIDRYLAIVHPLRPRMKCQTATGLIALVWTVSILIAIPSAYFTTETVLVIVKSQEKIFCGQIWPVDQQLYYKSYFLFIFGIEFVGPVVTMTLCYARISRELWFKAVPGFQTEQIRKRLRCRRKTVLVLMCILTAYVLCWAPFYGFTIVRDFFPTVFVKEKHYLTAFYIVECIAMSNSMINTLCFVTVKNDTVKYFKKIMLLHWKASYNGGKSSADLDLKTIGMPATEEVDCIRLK

| Molecule | Ca^2+ Mobilization % Inh @ 10 μM [1] | inhibition at 10 µM [1] [%] | IC50 [1] | suppression of Cholera toxin-evoked increase in Isc (in words) [2] | suppression of sustained increase in baseline Isc evoked by Cholera toxin [2] | change in Isc compared to wild-type littermates [3] |
| --- | --- | --- | --- | --- | --- | --- |
| COc1ccc(Cn2c(NCc3cccnc3N)nc(=O)n(Cc3ccc(OC)cc3)c2=O)cc1 [Cpd 3, 6-[(2-Amino-pyridin-3-ylmethyl)-amino]-1,3-bis-(4-methoxy-benzyl)-1H-[1,3,5]triazine-2,4-dione] | 94% and 100% | 83 | 34 nM and 61 nM and 82 nM | suppresses | 50-60% | – |
| COc1ccc(Cn2c(NCc3cnc(C)cn3)nc(=O)n(Cc3ccc(OC)cc3)c2=O)cc1 [Cpd 247] | 97% | 100 | 27 nM and 30 nM | – | – | – |
| COc1ccc(Cn2c(NCc3cnc(C)nc3N)nc(=O)n(Cc3ccc(OC)cc3)c2=O)cc1 [Cpd 248] | – | 103 | 34 nM | – | – | – |
| COc1ccc(Cn2c(SCc3cccnc3N)cc(=O)n(Cc3ccc(OC)cc3)c2=O)cc1 [Cpd 249] | – | 90 | 194 nM | – | – | – |
| COc1ccc(Cn2c(NCc3c(COCc4ccccc4)cc(C)nc3N)nc(=O)n(Cc3ccc(OC)cc3)c2=O)cc1 [Cpd 250] | – | 48 | 8630 nM | – | – | – |
| Cc1cc(CO)c(CNc2nc(=O)n(Cc3ccc4c(c3)CCO4)c(=O)n2Cc2ccc(OC(F)F)cc2)c(N)n1 [Cpd 251] | – | 93 | 225 nM | – | – | – |
| COCCCCCn1c(=O)nc(NCc2c(C)cc(C)nc2N)n(Cc2ccc(OC)cc2)c1=O [Cpd 252, 6-[(2-Amino-4,6-dimethyl-pyridin-3-ylmethyl)-amino]-1-(4-methoxy-benzyl)-3-(5-methoxy-pentyl)-1H-[1,3,5]triazine-2,4-dione] | – | 71 | 1350 nM | – | – | – |
| COCCCCCn1c(NCc2c(C)cc(C)nc2N)nc(=O)n(Cc2ccc(Cl)cc2)c1=O [Cpd 253] | – | 97 | 9 nM | – | – | – |
| COCCCCCn1c(NCc2c(C)cc(C)nc2N)nc(=O)n(Cc2ccccc2)c1=O [Cpd 254] | – | 96 | 98 nM | – | – | – |
| COCCCCCn1c(NCc2c(C)cc(C)nc2N)nc(=O)n(Cc2ccc(Cl)c(Cl)c2)c1=O [Cpd 255] | – | 99 | 78 nM | – | – | – |
| COCCCCCn1c(NCc2cccnc2N)nc(=O)n(Cc2ccc(Cl)cc2)c1=O [Cpd 256] | – | 99 | 118 nM | – | – | – |
| COCCCCCn1c(NCc2cccnc2N)nc(=O)n(Cc2ccc(OC(F)F)cc2)c1=O [Cpd 257] | – | 76 | 1520 nM | – | – | – |
| Cc1cnc(CNc2nc(=O)n(Cc3ccc4c(c3)CCO4)c(=O)n2Cc2ccc(OC(F)F)cc2)cn1 [Cpd 261] | – | 87 | 772 nM | – | – | – |
| Cc1cc(-c2ccc(F)cc2)nc(N)c1CNc1nc(=O)n(Cc2ccc3c(c2)CCO3)c(=O)n1Cc1ccc(OC(F)F)cc1 [Cpd 262] | – | 0.89 | > 10000 nM | – | – | – |
| COc1ccc(Cn2c(NCc3c(N)nc(C)c(C)c3C)nc(=O)n(Cc3ccc(OC)cc3)c2=O)cc1 [Cpd 263] | – | 99 | 94 nM | – | – | – |
| COc1ccc(Cn2c(NCc3c(N)nc4c(c3C)CCC4)nc(=O)n(Cc3ccc(OC)cc3)c2=O)cc1 [Cpd 264] | – | 95 | 74 nM | – | – | – |
| CCCc1cc(CCC)c(CNc2nc(=O)n(Cc3ccc(OC)cc3)c(=O)n2Cc2ccc(OC)cc2)c(N)n1 [Cpd 265] | – | 95 | 441 nM | – | – | – |
| COc1ccc(Cn2c(NCc3cccc(C)n3)nc(=O)n(Cc3ccc(OC)cc3)c2=O)cc1 [Cpd 267] | – | 10 | > 10000 nM | – | – | – |
| Nc1cc(Cn2c(=O)nc(NCc3cccnc3N)n(Cc3ccc(OC(F)F)cc3)c2=O)ccc1O [Cpd 268] | – | 24 | > 10000 nM | – | – | – |
| Nc1cc(Cn2c(=O)nc(NCc3cccnc3N)n(Cc3ccc4c(c3)CCO4)c2=O)ccc1O [Cpd 269] | – | 22 | > 10000 nM | – | – | – |
| Cc1cc(COCc2ccccc2)c(CNc2nc(=O)n(Cc3ccc4c(c3)CCO4)c(=O)n2Cc2ccc(OC(F)F)cc2)c(N)n1 [Cpd 270, 6-[(2-Amino-4-benzyloxymethyl-6-methyl-pyridin-3-ylmethyl)-amino]-1-(4-difluoromethoxy-benzyl)-3-(2,3-dihydro-benzofuran-5-ylmethyl)-1H-[1,3,5]triazine-2,4-dione] | – | 12 | > 10000 nM | – | – | – |
| PK1: Recombinant human prokineticin-1 expressed in HEK 293 cells, FLAG epitope cleaved; preparation holds full-length and a four C-terminal residue truncated product (protein, UniProt P58294 20-105, looked up, mixture with C-terminally truncated product) Prokineticin-1: AVITGACERDVQCGAGTCCAISLWLRGLRMCTPLGREGEECHPGSHKVPFFRKRKHHTCPCLPNLLCSRFPDGRYRCSMDLKNINF | – | – | – | – | – | failed to elicit a significant change in Isc |
